We go through nine molecules from DBAASP.

Holding throughout (assay): ≥ marks a high value that may be exact or a test limit, other limits are often not marked, values filed in µg/mL are converted to µM
The test system of assay [1] is Escherichia coli ATCC 8739.
The test system of assay [2] is Pseudomonas aeruginosa ATCC 9027.
Assay [3] concerns Staphylococcus aureus ATCC 6538.
The subject of assay [4] is Acinetobacter baumannii NM109.
Assay [5] concerns Acinetobacter baumannii NM124.
Assay [6] relates to Acinetobacter baumannii NM35.
Assay [7] has as its system Acinetobacter baumannii NM75.
In assay [8] the test system is Acinetobacter baumannii NM8.
The subject of assay [9] is Acinetobacter baumannii.
Assay [10] relates to Candida albicans ATCC 90028.
Assay [11] concerns Escherichia coli ATCC 25726.
In assay [12] the test system is Staphylococcus aureus ATCC 25923.
The subject of assay [13] is Bacillus anthracis Sterne 34F2.
Assay [14] concerns Bacillus subtilis var. niger ATCC 9372.
For assay [15], the system named is Escherichia coli K91BK.
Assay [16] has as its system Candida albicans NCYC 1467.
The test system of assay [17] is Escherichia coli NCTC 10418.
Assay [18] concerns Pseudomonas aeruginosa ATCC 27853.
Assay [19] concerns Staphylococcus aureus NCTC 10788.
In assay [20] the test system is Proteus mirabilis.
Assay [21] concerns Pseudomonas aeruginosa.
The subject of assay [22] is Staphylococcus aureus.
Assay [23] deals with Streptococcus pyogenes.

In general, MIC refers to the smallest concentration in the dilution series that meets the test's criterion for growth inhibition. High values mean a need for much substance, low ones inhibition by little substance.

In brackets after ≈: the same amount, converted by molar mass. Several values for one entry are separate records, joined by “and”; a condition that tells them apart may be missing. Equal entries are not always repeated.

As to `NCCCC[C@H](NC(=O)[C@H](Cc1c[nH]c2ccccc12)NC(=O)[C@H](Cc1ccccc1)NC(=O)[C@H](Cc1c[nH]c2ccccc12)NC(=O)[C@@H](N)CS)C(=O)N[C@@H](Cc1c[nH]c2ccccc12)C(=O)N[C@@H](Cc1c[nH]c2ccccc12)C(=O)N[C@@H](CCCN=C(N)N)C(=O)N[C@@H](CCCN=C(N)N)C(=O)N[C@@H](CCCN=C(N)N)C(=O)N[C@@H](CCCN=C(N)N)C(=O)N[C@@H](CCCN=C(N)N)C(N)=O` [CWFWKWWRRRRR], the minimal inhibitory concentration (MIC) in [1] is 5.2 µM and 7.3 µM; in [2], 5.5 µM and 8.7 µM; in [3], 2.5 µM and 4.7 µM.

Regarding `CC[C@H](C)[C@H](NC(=O)CN)C(=O)N[C@@H](Cc1c[nH]c2ccccc12)C(=O)N[C@@H](CCCCN)C(=O)N[C@H](C(=O)N[C@H](C(=O)N[C@@H](CCCCN)C(=O)N[C@@H](CO)C(=O)N[C@@H](CCSC)C(=O)NCC(=O)N[C@@H](CCCCN)C(=O)N[C@H](C(=O)N[C@@H](Cc1ccccc1)C(=O)N[C@@H](C)C(=O)NCC(=O)N[C@@H](C)C(=O)N[C@H](C(=O)N[C@@H](CCCCN)C(=O)N[C@@H](CCC(N)=O)C(=O)N[C@@H](CC(N)=O)C(=O)N[C@@H](CC(C)C)C(N)=O)[C@@H](C)CC)C(C)C)[C@@H](C)CC)[C@@H](C)O` [GIWKTIKSMGKVFAGAIKQNL], the MIC turned out to be 3 µM (≈ 6.87 µg/mL) in assay [4]; 3 µM (≈ 6.87 µg/mL) in [5]; 3 µM (≈ 6.87 µg/mL) in [6]; 3 µM (≈ 6.87 µg/mL) in [7]; 3 µM (≈ 6.87 µg/mL) in assay [8]; 6.25 µM (≈ 14.3 µg/mL) in assay [9]. Also, the MIC was 12.5 µM (≈ 28.6 µg/mL) in [10], 12.5 µM (≈ 28.6 µg/mL) in assay [11] and 100 µM (≈ 229 µg/mL) in assay [12].

Consider `CC[C@H](C)[C@H](NC(=O)CN)C(=O)N[C@@H](Cc1c[nH]c2ccccc12)C(=O)N[C@@H](CCCCN)C(=O)N[C@H](C(=O)N[C@H](C(=O)N[C@@H](CCCCN)C(=O)N[C@@H](CO)C(=O)N[C@@H](CCSC)C(=O)NCC(=O)N[C@@H](CCCCN)C(=O)N[C@H](C(=O)N[C@@H](Cc1ccccc1)C(=O)N[C@@H](C)C(=O)NCC(=O)N[C@@H](CCCCN)C(=O)N[C@H](C(=O)N[C@@H](CCCCN)C(=O)N[C@@H](CCC(N)=O)C(=O)N[C@@H](CC(N)=O)C(=O)N[C@@H](CC(C)C)C(N)=O)[C@@H](C)CC)C(C)C)[C@@H](C)CC)[C@@H](C)O` [GIWKTIKSMGKVFAGKIKQNL], for which the MIC amounted to 6 µM (≈ 14.1 µg/mL) in assay [4]; 6 µM (≈ 14.1 µg/mL) in assay [5]; 6 µM (≈ 14.1 µg/mL) in [6]; 3 µM (≈ 7.04 µg/mL) in [7]; 6 µM (≈ 14.1 µg/mL) in assay [8]; 6.25 µM (≈ 14.7 µg/mL) in [9]. Moreover, the MIC in assay [10] worked out at 12.5 µM (≈ 29.3 µg/mL); in [11], 25 µM (≈ 58.7 µg/mL); in assay [12], 100 µM (≈ 235 µg/mL).

`CC[C@H](C)[C@H](NC(=O)[C@H](C)NC(=O)[C@H](CCCCN)NC(=O)[C@H](CCCN=C(N)N)NC(=O)CNC(=O)[C@H](Cc1ccccc1)NC(=O)[C@H](CCCCN)NC(=O)[C@H](CCCCN)NC(=O)[C@@H](NC(=O)[C@H](CC(C)C)NC(=O)[C@H](CCCCN)NC(=O)CNC(=O)[C@H](Cc1ccccc1)NC(=O)[C@H](CC(C)C)NC(=O)CNC(C)=O)[C@@H](C)CC)C(=O)N[C@@H](CO)C(=O)N[C@@H](Cc1ccc(O)cc1)C(=O)N[C@@H](C)C(=O)N[C@H](C(=O)N[C@@H](CCCCN)C(=O)N[C@@H](CCCCN)C(=O)N[C@@H](C)C(=O)N[C@@H](CCCN=C(N)N)C(=O)NCC(=O)N[C@@H](CCCCN)C(=O)N[C@@H](Cc1cnc[nH]1)C(N)=O)C(C)C` [GLFGKLIKKFGRKAISYAVKKARGKH]: the MIC is 6.25 µM (≈ 18.4 µg/mL) in assay [13], 2.37 µM (≈ 6.98 µg/mL) in [14] and at least 100 µM in assay [15].

Consider `CC(=O)N[C@@H](CCCCN)C(=O)N[C@@H](Cc1c[nH]c2ccccc12)C(=O)N[C@@H](CCCCN)C(=O)N[C@@H](CCCCN)C(=O)N[C@@H](CC(C)C)C(=O)N[C@@H](CC(C)C)C(=O)N[C@@H](CCCCN)C(=O)N[C@@H](CCCCN)C(=O)N1CCC[C@H]1C(=O)N[C@@H](CC(C)C)C(=O)N[C@@H](CC(C)C)C(=O)N[C@@H](CCCCN)C(=O)N[C@@H](CCCCN)C(=O)N[C@@H](CC(C)C)C(=O)N[C@@H](CC(C)C)C(=O)N[C@@H](CCCCN)C(=O)N[C@@H](CCCCN)C(=O)N[C@@H](CC(C)C)C(N)=O` [KWKKLLKKPLLKKLLKKL], for which the MIC is at least 100 µM in [13], 3.13 µM (≈ 7.16 µg/mL) in [14] and at least 100 µM in assay [15].

As to `CC[C@H](C)[C@H](NC(=O)[C@H](CC(C)C)NC(=O)[C@H](C)NC(=O)[C@H](CO)NC(=O)[C@@H](NC(=O)[C@H](CC(C)C)NC(=O)[C@@H](N)CC(N)=O)C(C)C)C(=O)N[C@@H](CCC(=O)O)C(=O)NCC(=O)N[C@@H](CCCN=C(N)N)C(=O)N[C@@H](CCCCN)C(=O)N[C@@H](Cc1ccc(O)cc1)C(=O)N[C@@H](CC(C)C)C(=O)N[C@@H](CCCCN)C(=O)N[C@@H](CC(N)=O)C(=O)N[C@H](C(=O)N[C@@H](CC(C)C)C(=O)N[C@@H](CCCCN)C(=O)O)C(C)C` [NLVSALIEGRKYLKNVLK], the minimum inhibitory concentration (MIC) was 31.1 µM (≈ 64 µg/mL) in assay [16], at least 62.2 µM in assay [17], over 249 µM in assay [18] and at least 62.2 µM in [19].

On to `NC(N)=NCCC[C@H](NC(=O)[C@H](CCCN=C(N)N)NC(=O)[C@H](CCCN=C(N)N)NC(=O)[C@H](CCCN=C(N)N)NC(=O)[C@H](Cc1c[nH]c2ccccc12)NC(=O)[C@H](Cc1c[nH]c2ccccc12)NC(=O)[C@H](Cc1c[nH]c2ccccc12)NC(=O)[C@H](Cc1c[nH]c2ccccc12)NC(=O)[C@H](CCCN=C(N)N)NC(=O)[C@H](CCCN=C(N)N)NC(=O)[C@H](CCCN=C(N)N)NC(=O)[C@@H](N)CCCN=C(N)N)C(=O)O` [RRRRWWWWRRRR], for which the MIC in [20] was 31.8 µM (≈ 64 µg/mL); in assay [21], over 31.8 µM; in assay [22] it was 3.98 µM (≈ 8 µg/mL); in [23], 0.807 µM (≈ 1.62 µg/mL).

For the molecule `NC(N)=NCCC[C@H](NC(=O)[C@H](CCCN=C(N)N)NC(=O)[C@H](CCCN=C(N)N)NC(=O)[C@H](CCCN=C(N)N)NC(=O)[C@H](CCCN=C(N)N)NC(=O)[C@H](CCCN=C(N)N)NC(=O)[C@H](CCCN=C(N)N)NC(=O)[C@H](CCCN=C(N)N)NC(=O)[C@@H](N)Cc1c[nH]c2ccccc12)C(=O)O` [WRRRRRRRR], the MIC is at least 44 µM in assay [20], over 44 µM in [21], 22 µM (≈ 32 µg/mL) in [22] and 2.75 µM (≈ 4 µg/mL) in assay [23].

Regarding `CC(=O)N[C@@H](Cc1c[nH]c2ccccc12)C(=O)N[C@@H](CCCN=C(N)N)C(=O)N[C@@H](CO)C(=O)N[C@@H](CC(C)C)C(=O)NCC(=O)N[C@@H](CCCN=C(N)N)C(=O)N[C@H](C(=O)N[C@@H](CC(C)C)C(=O)N[C@@H](CC(C)C)C(=O)N[C@@H](CCCN=C(N)N)C(=O)N[C@@H](CC(C)C)C(=O)N[C@@H](CO)C(=O)N[C@@H](Cc1cnc[nH]1)C(=O)N[C@@H](C)C(=O)N[C@@H](CC(C)C)C(=O)N[C@@H](CCCCN)C(=O)N1CCC[C@H]1C(=O)N[C@@H](CC(C)C)C(=O)N[C@@H](C)C(=O)N[C@@H](CCCN=C(N)N)C(=O)N[C@@H](CCCN=C(N)N)C(=O)N[C@@H](CO)C(=O)NCC(=O)N[C@@H](Cc1c[nH]c2ccccc12)C(N)=O)[C@@H](C)O` [WRSLGRTLLRLSHALKPLARRSGW], the MIC is 7.87 µM (≈ 22.6 µg/mL) in [13], 2.1 µM (≈ 6.03 µg/mL) in [14] and at least 100 µM in assay [15].
